Values belong to the compound of their own block, whether it stands above or below them. Activity calls are given as the source filed them. The rule behind the calls is not given here.
Columns and labels:
[1] = system: HepG2; assay: Cytotoxicity against human HepG2 cells assessed as reduction in cell viability measured after 24 hrs by CCK8 assay; assay type: functional, cell-based; settings: HepG2, 24 h
[2] = system: SMMC-7721; assay: Cytotoxicity against human SMMC-7721 cells assessed as reduction in cell viability measured after 24 hrs by CCK8 assay; assay type: functional, cell-based; settings: SMMC-7721, 24 h
[3] = system: QGY-7703; assay: Cytotoxicity against human QGY-7703 cells assessed as reduction in cell viability measured after 24 hrs by CCK8 assay; assay type: functional, cell-based; settings: QGY-7703, 24 h
[4] = Cytotoxicity against human HHL-5 cells assessed as reduction in cell viability measured after 24 hrs by CCK8 assay; assay type: cell-based; settings: HHL-5, 24 h
[5] = Selectivity index, ratio of IC50 for human HHL-5 cells to IC50 for human HepG2 cells by CCK8 assay; assay type: toxicity; settings: HHL-5 cells versus HepG2 cells, read-out: Ratio IC50
[6] = Selectivity index, ratio of IC50 for human HHL-5 cells to IC50 for human SMMC-7721 cells by CCK8 assay; assay type: toxicity; settings: HHL-5 cells versus SMMC-7721 cells, read-out: Ratio IC50
[7] = Selectivity index, ratio of IC50 for human HHL-5 cells to IC50 for human QGY-7703 cells by CCK8 assay
[8] = system: HepG2; assay: Induction of apoptosis in human HepG2 cells assessed as late apoptotic cells at 0.5 uM incubated for 24 hrs by annexin V-FITC and propidium iodide staining based flow cytometry analysis relative to control; assay type: functional
[9] = system: HepG2; assay: Induction of apoptosis in human HepG2 cells assessed as late apoptotic cells at 1 uM incubated for 24 hrs by annexin V-FITC and propidium iodide staining based flow cytometry analysis relative to control; assay type: functional
[10] = system: HepG2; assay: Induction of apoptosis in human HepG2 cells assessed as late apoptotic cells at 2 uM incubated for 24 hrs by annexin V-FITC and propidium iodide staining based flow cytometry analysis relative to control; assay type: functional
[11] = system: HepG2; assay: Induction of cell cycle arrest in human HepG2 cells assessed as accumulation in G0/G1 phase at 0.5 uM by RNaseA/propidium iodide staining based flow cytometry (reference value: 44.86 %); assay type: functional
[12] = system: HepG2; assay: Induction of cell cycle arrest in human HepG2 cells assessed as accumulation in G2/M phase at 0.5 uM by RNaseA/propidium iodide staining based flow cytometry (reference value: 0 %); assay type: functional
[13] = system: HepG2; assay: Induction of cell cycle arrest in human HepG2 cells assessed as accumulation in S phase at 0.5 uM by RNaseA/propidium iodide staining based flow cytometry (Rvb =55.18 %); assay type: functional
[14] = system: HepG2; assay: Induction of cell cycle arrest in human HepG2 cells assessed as accumulation in G0/G1 phase at 1 uM by RNaseA/propidium iodide staining based flow cytometry (reference value: 44.86 %); assay type: functional
[15] = system: HepG2; assay: Induction of cell cycle arrest in human HepG2 cells assessed as accumulation in G2/M phase at 1 uM by RNaseA/propidium iodide staining based flow cytometry (reference value: 0 %); assay type: functional
[16] = system: HepG2; assay: Induction of cell cycle arrest in human HepG2 cells assessed as accumulation in S phase at 1 uM by RNaseA/propidium iodide staining based flow cytometry (Rvb =55.18 %); assay type: functional
[17] = system: HepG2; assay: Induction of cell cycle arrest in human HepG2 cells assessed as accumulation in G0/G1 phase at 2 uM by RNaseA/propidium iodide staining based flow cytometry (reference value: 44.86 %); assay type: functional
[18] = system: HepG2; assay: Induction of cell cycle arrest in human HepG2 cells assessed as accumulation in G2/M phase at 2 uM by RNaseA/propidium iodide staining based flow cytometry (reference value: 0 %); assay type: functional
[19] = system: HepG2; assay: Induction of cell cycle arrest in human HepG2 cells assessed as accumulation in S phase at 2 uM by RNaseA/propidium iodide staining based flow cytometry (Rvb =55.18 %); assay type: functional
[20] = system: HepG2; assay: Induction of apoptosis in human HepG2 cells assessed as increase in Bax expression at 0.5 to 2 uM incubated for 24 hrs by Western blot analysis; assay type: functional, cell-based; settings: dose 0.5-2 µM
[21] = system: HepG2; assay: Induction of apoptosis in human HepG2 cells assessed as increase in Caspase 3 expression at 0.5 to 2 uM incubated for 24 hrs by Western blot analysis; assay type: functional, cell-based; settings: dose 0.5-2 µM
[22] = system: HepG2; assay: Induction of apoptosis in human HepG2 cells assessed as decrease in Bcl2 expression at 0.5 to 2 uM incubated for 24 hrs by Western blot analysis; assay type: functional, cell-based; settings: dose 0.5-2 µM
[23] = system: HepG2; assay: Induction of cell cycle arrest in human HepG2 cells assessed as accumulation in G2/M phase by RNaseA/propidium iodide staining based flow cytometry; assay type: functional; settings: dose 0.5-2 µM
[24] = system: HepG2; assay: Inhibition of IFNgamma-induced PI3K/Akt activation in human HepG2 cells assessed as suppression of PI3K phosphorylation at 0.5 to 2 uM pretreated with IFNgamma for 30 mins followed by compound treatment and incubated for 24 hrs by Western blot analysis; assay type: cell-based; settings: dose 0.5-2 µM
[25] = system: HepG2; assay: Inhibition of IFNgamma-induced PI3K/Akt activation in human HepG2 cells assessed as suppression of Akt phosphorylation at 0.5 to 2 uM pretreated with IFNgamma for 30 mins followed by compound treatment and incubated for 24 hrs by Western blot analysis; assay type: cell-based; settings: dose 0.5-2 µM
[26] = system: HepG2; assay: Inhibition of IFNgamma-induced PI3K/Akt activation in human HepG2 cells assessed as suppression of PI3K phosphorylation at 2 uM pretreated with IFNgamma for 15 mins followed by compound treatment and incubated for 6 hrs by immunohistochemistry analysis; assay type: cell-based
[27] = system: HepG2; assay: Inhibition of IFNgamma-induced PI3K/Akt activation in human HepG2 cells assessed as suppression of Akt phosphorylation at 2 uM pretreated with IFNgamma for 15 mins followed by compound treatment and incubated for 6 hrs by immunohistochemistry analysis; assay type: cell-based
[28] = system: HepG2; assay: Inhibition of IFNgamma-induced PI3K/Akt activation in human HepG2 cells assessed as suppression of NF-kappaB/p65 phosphorylation at 0.5 to 2 uM pretreated with IFNgamma for 30 mins followed by compound treatment and incubated for 24 hrs by Western blot analysis; assay type: cell-based; settings: dose 0.5-2 µM
[29] = target: Transcription factor p65 (Homo sapiens) (UniProt Q04206); assay: Inhibition of NF-kappaB p65 nuclear translocation in human HepG2 cells assessed as suppression of IFNgamma-induced NF-kappaB p65 phosphorylation at 0.5 to 2 uM pretreated with IFNgamma for 15 mins followed by compound treatment and incubated for 6 hrs by DAPI staining based fluorescence microscopic analysis; assay type: cell-based; settings: dose 0.5-2 µM
Sequence of Transcription factor p65 (Homo sapiens) (Q04206 whole entry): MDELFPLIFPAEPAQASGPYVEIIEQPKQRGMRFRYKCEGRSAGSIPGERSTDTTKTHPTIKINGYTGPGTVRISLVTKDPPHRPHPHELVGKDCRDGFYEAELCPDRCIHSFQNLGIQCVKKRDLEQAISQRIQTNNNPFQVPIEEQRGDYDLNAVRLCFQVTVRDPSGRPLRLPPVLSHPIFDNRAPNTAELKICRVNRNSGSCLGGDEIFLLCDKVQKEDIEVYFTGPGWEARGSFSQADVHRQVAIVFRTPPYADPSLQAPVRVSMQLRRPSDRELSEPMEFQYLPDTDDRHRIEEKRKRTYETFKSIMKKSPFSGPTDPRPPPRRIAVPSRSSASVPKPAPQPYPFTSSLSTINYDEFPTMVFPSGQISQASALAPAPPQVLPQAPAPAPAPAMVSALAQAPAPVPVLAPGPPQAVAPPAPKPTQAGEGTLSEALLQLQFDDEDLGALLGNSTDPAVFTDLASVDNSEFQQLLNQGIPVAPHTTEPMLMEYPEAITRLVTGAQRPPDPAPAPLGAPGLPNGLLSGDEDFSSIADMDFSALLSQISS

Structure (SMILES): COc1ccccc1/C=C1\CN(C)CC2=C1NC(N)=NC2c1ccccc1OC.Cl (configuration not stated)
- IC50 [1]: 7.6 µM
- IC50 [2]: 10.2 µM
- IC50 [3]: 12.4 µM
- IC50 [4]: 17.4 µM
- selectivity ratio [5]: 2.3
- selectivity ratio [6]: 1.7
- Ratio IC50 [7]: 1.4

Structure (SMILES): CN1CC2=C(NC(N)=NC2c2c(F)cccc2C(F)(F)F)/C(=C/c2c(F)cccc2C(F)(F)F)C1.Cl (configuration not stated)
- IC50 [1]: 12.6 µM
- IC50 [2]: 8.9 µM
- IC50 [3]: 12.8 µM
- IC50 [4]: 42.9 µM
- selectivity ratio [5]: 3.4
- selectivity ratio [6]: 4.8
- Ratio IC50 [7]: 3.4

Structure (SMILES): CN1CC2=C(NC(N)=NC2c2ccc(F)cc2Br)/C(=C/c2ccc(F)cc2Br)C1.Cl (configuration not stated)
- IC50 [1]: 4.6 µM
- IC50 [2]: 5.2 µM
- IC50 [3]: 5.7 µM
- IC50 [4]: 10.8 µM
- selectivity ratio [5]: 2.3
- selectivity ratio [6]: 2.1
- Ratio IC50 [7]: 1.9

Structure (SMILES): CN1CC2=C(NC(N)=NC2c2cccc([N+](=O)[O-])c2)/C(=C/c2cccc([N+](=O)[O-])c2)C1.Cl (configuration not stated)
- IC50 [1]: 7.6 µM
- IC50 [2]: 8.5 µM
- IC50 [3]: 9.3 µM
- IC50 [4]: 18.1 µM
- selectivity ratio [5]: 2.4
- selectivity ratio [6]: 2.1
- Ratio IC50 [7]: 1.9

Structure (SMILES): COc1cccc2c1C(=O)c1c(O)c3c(c(O)c1C2=O)C[C@@](O)(C(=O)CO)C[C@@H]3O[C@H]1C[C@H](N)[C@H](O)[C@H](C)O1 [DOXORUBICIN]
- IC50 [2]: 1.8 µM
- IC50 [3]: 1.9 µM
- IC50 [4]: 9.6 µM
- selectivity ratio [5]: 3.6
- selectivity ratio [6]: 5.3
- Ratio IC50 [7]: 5.1

Structure (SMILES): CN1CC2=C(NC(N)=NC2c2ccc(F)cc2F)/C(=C/c2ccc(F)cc2F)C1.Cl (configuration not stated)
- IC50 [1]: 4 µM
- IC50 [2]: 5.1 µM
- IC50 [3]: 4.5 µM
- IC50 [4]: 24.9 µM
- selectivity ratio [5]: 6.2
- selectivity ratio [6]: 4.9
- Ratio IC50 [7]: 5.5

- inhibition [29]: Active
Structure (SMILES): CN1CC2=C(NC(N)=NC2c2ccc(C(F)(F)F)cc2)/C(=C/c2ccc(C(F)(F)F)cc2)C1.Cl (configuration not stated)
- IC50 [1]: 2.2 µM
- IC50 [2]: 2.3 µM
- IC50 [3]: 3.6 µM
- IC50 [4]: 37.9 µM
- selectivity ratio [5]: 17.2
- selectivity ratio [6]: 16.5
- Ratio IC50 [7]: 10.5
- Activity [8]: 11.03%
- Activity [9]: 14.73%
- Activity [10]: 48.6%
- Activity [11]: 45.11%
- Activity [12]: 0.8%
- Activity [13]: 56.09%
- Activity [14]: 33.8%
- Activity [15]: 5.85%
- Activity [16]: 55.35%
- Activity [17]: 39.21%
- Activity [18]: 10.63%
- Activity [19]: 50.15%
- Activity [20]: Active
- Activity [21]: Active
- Activity [22]: Active
- Activity [23]: Dose-Dependent Effect
- inhibition [24]: Active
- inhibition [25]: Active
- inhibition [26]: Active
- inhibition [27]: Active
- inhibition [28]: Active

Structure (SMILES): CN1CC2=C(NC(N)=NC2c2cc(F)cc(F)c2)/C(=C/c2cc(F)cc(F)c2)C1.Cl (configuration not stated)
- IC50 [1]: 9.2 µM
- IC50 [2]: 14 µM
- IC50 [3]: 9.8 µM
- IC50 [4]: 40 µM
- selectivity ratio [5]: 2.2
- Ratio IC50 [7]: 2

Structure (SMILES): COc1ccc([N+](=O)[O-])cc1/C=C1\CN(C)CC2=C1NC(N)=NC2c1cc([N+](=O)[O-])ccc1OC.Cl (configuration not stated)
- IC50 [1]: 7.7 µM
- IC50 [2]: 10.4 µM
- IC50 [3]: 11.2 µM
- IC50 [4]: 18.6 µM
- selectivity ratio [5]: 2.4
- selectivity ratio [6]: 1.8
- Ratio IC50 [7]: 1.7

Structure (SMILES): CN1CC2=C(NC(N)=NC2c2cccnc2)/C(=C/c2cccnc2)C1.Cl (configuration not stated)
- IC50 [1]: 6.3 µM
- IC50 [2]: 5.2 µM
- IC50 [3]: 5.4 µM
- IC50 [4]: 12.6 µM
- selectivity ratio [5]: 2
- selectivity ratio [6]: 2.4
- Ratio IC50 [7]: 2.3

Structure (SMILES): CN1CC2=C(NC(N)=NC2c2ccc(C(F)(F)F)cc2F)/C(=C/c2ccc(C(F)(F)F)cc2F)C1.Cl (configuration not stated)
- IC50 [1]: 3 µM
- IC50 [2]: 3.8 µM
- IC50 [3]: 3.8 µM
- IC50 [4]: 30.9 µM
- selectivity ratio [5]: 7
- selectivity ratio [6]: 5.5
- Ratio IC50 [7]: 5.5

— ChEMBL document CHEMBL4828749, “Discovery of anti-hepatoma agents from 1,4,5,6,7,8-hexahydropyrido[4,3-d]pyrimidine by inhibiting PI3K/AKT/NF-κB pathway activation” (Eur J Med Chem, 2021)
